Results published in US20080096858A1, “Method of Stabilizing Disordered Cefovecin Sodium Salt” (UNIVERSITY OF CONNECTICUT, priority 2004, published 2008).

Columns and labels:
[1] = HPLC purity of thermally treated freeze-dried cefovecin sodium salt (Example 3, Table 3)
Procedure: (§1) Reverse Phase High Performance Liquid Chromatography (RP-HPLC) was used to monitor degradation of cefovecin sodium salt. HPLC was carried out with a Waters Alliance (Milford, Mass.) system with a UV detector set at 256 nm and a Kromasil C4 column 4.6×250 mm, 5 μm, 100 angstrom pore size (Waters, Milford, Mass.). Column temperature was 30±2° C. and the samples were maintained in the auto sampler at 5±3° C. and the flow rate was 1 mL/min. Gradient method was used with mobile phase A consisting of (9:1) 0.025M sodium phosphate buffer solution, pH 6.5: acetonitrile in HPLC grade water, and mobile phase B consisting of (4:6) 0.025M sodium phosphate buffer solution, pH 6.5: acetonitrile in HPLC grade water.
(§2) The lyophilized cake was dissolved in WFI, and the solution was injected into the HPLC column. Contents of cefovecin sodium salt and a main degradant with relative retention time of approximately 1.6 were calculated as Ac/ΣAi, where Ac is the peak area of either cefovecin sodium salt or the degradant, and ΣAi is a total area of all chromatographic peaks. […] Stability data obtained for two annealed samples and the control sample are graphically illustrated in FIG. 1.
A freeze-dried formulation that contains cefovecin sodium salt was prepared as follows. Cefovecin sodium salt was dissolved in citrate buffer at pH 6.7. […] The solution contained 200 mg/ml of cefovecin sodium salt, 50 mM citrate buffer, 4.5 mg/ml methylparaben, and 0.5 mg/ml propylparaben. The solution was filled in 20 ml glass vials, 4.25 ml/vial. The vials were partially stoppered with single-vent D777-1 and loaded into a freeze-drier (Hull 450 FXS800S, Warminster, Pa.). The solution was frozen at −40° C. followed by primary drying at the shelf temperature of −10° C. and approximately 200 millitore vacuum; after the product temperature approached −12° C., secondary drying was performed at shelf temperature 40° C. for approximately 12 hours and 200 millitore vacuum. Lyophilized cefovecin sodium salt was prepared in a contract facility, SmithKline Beecham Corporation, Conshocken, Pa. […] The lyophilized samples were annealed in sealed vials at 160° C. for 120 min and 170° C./45 min. The untreated samples (control), and annealed samples were tested by HPLC; HPLC conditions are described in Example 1.

[2] = Physical form (crystallization) during thermal treatment; type: physicochemical; conditions: thermal treatment according to the invention; material remained amorphous
[3] = Storage stability at 40° C. of cefovecin sodium salt annealed at 75° C., monitored by RP-HPLC (Example 1); conditions: for relative rate constant k/k0 / degradation rate constant k: storage at 40° C.; for degradation rate constant k: zero-order model, SD in ( )
Procedure: Cefovecin sodium salt was dissolved in WFI at a concentration of 200 mg cefovecin sodium salt/ml. This solution was filtered using 0.22μ sterilized filters. 4.25 ml of this solution was volumetrically filled in the laminar flow hood into a 20-ml Flint Type I Tubular Treated Vials. 20 mm Lyophile D777-1, B2TR FluoroTec Single Vent Stoppers were partially inserted in the vials. The vials were lyophilized using Vertis freeze dryer (Gardiner, N.Y.) using the following cycle: frozen at −40° C. followed by vacuum drying at the shelf temperature of −18° C. for approximately 42 hours, and 60 millitore vacuum; secondary dried at a temperature of 40° C. for approximately 12 hours and 60 millitore vacuum. The lyophilizer chamber was back flushed with nitrogen and the vials were capped and sealed with aluminum shells.
Amorphous lyophilized cefovecin sodium salt was annealed in sealed vials at 75° C. for 20 and 60 min. The sealed vials with untreated cefovecin sodium salt (control), and vials with annealed cefovecin sodium salt were stored at 40° C. at ambient humidity for 6 and 12 weeks.
as §1, §2
In addition, relative rate constants, k/k0 (where k0 is the rate constant of the control) were calculated in relation to control. The k/k0 are plotted in FIG. 2 as a function of annealing time at 75° C.

[4] = Storage stability at 40° C. for 6 months of cefovecin sodium salt annealed at 60° C., monitored by RP-HPLC (Example 2)
Procedure: as §1, §2
Amorphous lyophilized cefovecin sodium salt was annealed in sealed vials at 60° C. for 300 min in a contract lab, UCONN, Storrs, Conn. Untreated samples (control), and annealed samples were placed on stability at 40° C. for 6 months. Reverse Phase High Performance Liquid Chromatography was used to monitor degradation as described in Example 1.

[5] = annealed at 60° C.; stability study at 25 and 40° C.; cited from earlier work
[6] = after storage 12 weeks at 40° C., ambient humidity, annealed at 75° C.
[7] = 0 min annealing at 75° C. (control)
[8] = after storage 6 months at 40° C., annealed at 60° C.

CO/N=C(\C(=O)N[C@@H]1C(=O)N2C(C(=O)[O-])=C([C@@H]3CCCO3)CS[C@H]12)c1csc(N)n1.[Na+] [cefovecin sodium salt]
Purity ([1]; after annealing 60° C./300 min (Example 2)): 98.1 area % | Purity ([1]; after annealing 75° C./20 min (Example 1)): 97.5 area % | Purity ([1]; after annealing 75° C./60 min (Example 1)): 97.5 area % | Purity ([1]; after annealing 160° C./120 minutes, freeze-dried formulation with citrate buffer, methylparaben, propylparaben (Example 3)): 69.8 area % | Purity ([1]; after annealing 170° C./45 minutes, freeze-dried formulation with citrate buffer, methylparaben, propylparaben (Example 3)): 70.3 area % | degradation caused by annealing ([1]; annealing at 160° C. and 170° C.): unacceptable levels of degradation | degradation caused by thermal treatment compared with examples 1 and 2 ([1]; treatment at both 160° C. and 170° C.): significant degradation | crystallization during thermal treatment [2]: did not occur | dimer level of annealed samples compared with control [3, 6]: lower | overall purity of annealed samples compared with control [3, 6]: higher | degradation caused by annealing (initial time points) ([3]; annealing 20 and 60 min at 75° C., lower purity, higher dimer): some degradation | effect of annealing on stability ([3]; annealing at 75° C.): increased the stability | relative rate constant k/k0 [3, 7]: 1.00 | degradation rate constant k [3, 7]: −0.12 (0.01) %/week | relative rate constant k/k0 ([3]; annealed 20 min at 75° C.): 0.82 | degradation rate constant k ([3]; annealed 20 min at 75° C.): −0.095 (0.006) %/week | relative rate constant k/k0 ([3]; annealed 60 min at 75° C.): 0.71 | degradation rate constant k ([3]; annealed 60 min at 75° C.): −0.082 (0.005) %/week | dimer level of annealed sample compared with control [4, 8]: lower | purity of annealed sample compared with control [4, 8]: higher | purity (cefovecin sodium salt) ([4]; annealed 60° C. 300 min, 0 months at 40° C.): 98.11 area % | purity (cefovecin sodium salt) ([4]; annealed 60° C. 300 min, 6 months at 40° C.): 96.49 area % | effect of annealing on stability ([4]; annealing at 60° C.): increased the stability | purity (cefovecin sodium salt) ([4]; control (not annealed), 0 months at 40° C.): 98.35 area % | purity (cefovecin sodium salt) ([4]; control (not annealed), 6 months at 40° C.): 96.35 area %

CO[C@@]1(NC(=O)C(C(=O)[O-])c2ccc(O)cc2)C(=O)N2C(C(=O)[O-])=C(CSc3nnnn3C)COC21.[Na+].[Na+] (some centres unmarked) [moxalactam, moxalactam (di-sodium salt)]
rate of decarboxylation of annealed sample compared with control [5]: lower
